Data taken from US11397186B2, “Methods for covalently binding a cell surface protein and a ligand” (UNIVERSITEIT GENT, priority 2016, dated 2022).
Non-standard residues stand in square brackets, D forms with d. Residues, ends and D or L forms follow the SMILES beside them. Ala(2-furyl) = N[C@@H](Cc1ccco1)C(=O)O

Target: T1, μ-opioid receptor (MOR) (Homo sapiens, UniProt P35372)
T1 construct: expressed in transfected cells; host or cells: CHO-hOR cells (CHO cells expressing the human opioid receptor)
Assay: Opioid receptor radio-ligand binding assay (CHO-hOR cells)
Details: based on Table 1
Protocol: Next, the synthesised peptides were subjected to biological activity testing, to know whether they still bind to the opioid receptor. If so, it is tested to which opioid receptor subtype they bind. It is also investigated whether the opioid peptides behave as agonist or antagonist. The following assays are performed: radio-ligand binding assay, ^35S GTP binding assay, and tissue experiments, including guinea pig ileum (GPI) and mouse vas deferens (MVD) tests.

T1 sequence (P35372 whole entry): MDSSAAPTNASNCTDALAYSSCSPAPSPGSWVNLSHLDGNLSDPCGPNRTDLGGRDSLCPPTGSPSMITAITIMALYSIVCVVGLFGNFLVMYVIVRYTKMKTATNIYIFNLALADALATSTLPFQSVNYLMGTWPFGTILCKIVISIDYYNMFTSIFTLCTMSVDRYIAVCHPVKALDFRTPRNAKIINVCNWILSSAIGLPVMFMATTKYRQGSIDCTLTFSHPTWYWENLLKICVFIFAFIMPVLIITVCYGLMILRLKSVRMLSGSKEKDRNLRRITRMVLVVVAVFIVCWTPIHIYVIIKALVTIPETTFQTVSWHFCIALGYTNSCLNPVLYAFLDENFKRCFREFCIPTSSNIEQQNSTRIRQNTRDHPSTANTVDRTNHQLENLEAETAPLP

N=C(N)NCCC[C@@H](NC(=O)[C@@H](N)Cc1ccc(O)cc1)C(=O)N[C@@H](Cc1ccco1)C(=O)N[C@@H](Cc1ccccc1)C(N)=O [FUA3] (H-Y[dR][Ala(2-furyl)]F-NH2; N-terminus and C-terminus assumed)
binding to the opioid receptor, assessment in words: acceptable
